Assay results from ChEMBL document CHEMBL1201862, “PubChem BioAssay data set” (2004).
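Five compound concentrations were applied to cells in 96-well plates for 48 hours; endpoints were derived by simple linear interpolation of the resulting dose-response curve. Here, GI50 denotes the concentration required for 50% inhibition of growth.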 Active and inactive are the calls of the source. Cut-off read from the data, not from the text of the source: active = GI50 up to about 1.1 µM and inactive = higher.

Experiments:
Assay in all cases: NCI-60 cell line screen, 48 h
CAKI-1 = test system: CAKI-1
COLO 205 = test system: COLO 205
DLD-1 = test system: DLD-1
K562 = test system: K562
KM12 = test system: KM12
M14 = test system: M14
MOLT-4 = test system: MOLT-4
OVCAR-4 = test system: OVCAR-4
OVCAR-5 = test system: OVCAR-5
RPMI-8226 = test system: RPMI-8226
SF-295 = test system: SF-295
SF-539 = test system: SF-539
SK-MEL-28 = test system: SK-MEL-28
SNB-19 = test system: SNB-19
SNB-75 = test system: SNB-75
SR = test system: SR
UACC-257 = test system: UACC-257
CCRF-CEM = test system: CCRF-CEM

Measured: GI50

CC(=O)n1cc(CC(C)O)c(=O)[nH]c1=O (stereo not given)
inactive: CAKI-1 > 100 µM | COLO 205 > 100 µM | DLD-1 > 100 µM | K562 > 100 µM | KM12 > 100 µM | M14 > 100 µM | MOLT-4 > 100 µM | OVCAR-4 > 100 µM | OVCAR-5 > 100 µM | RPMI-8226 > 100 µM | SF-295 > 100 µM | SF-539 > 100 µM | SK-MEL-28 > 100 µM | SNB-19 > 100 µM | SNB-75 > 100 µM | SR > 100 µM | UACC-257 > 100 µM

CC1=C(C(=O)NCc2ccccc2)C(c2ccccc2[N+](=O)[O-])C(C(=O)NCc2ccccc2)=C(C)N1
inactive: CAKI-1 21.3 µM | CCRF-CEM 6.89 µM | COLO 205 18.7 µM | DLD-1 6.73 µM | K562 5.08 µM | KM12 10.4 µM | M14 11.7 µM | MOLT-4 8.93 µM | OVCAR-4 10.2 µM | OVCAR-5 22.1 µM | SF-295 12.4 µM | SF-539 8.09 µM | SK-MEL-28 13.1 µM | SNB-19 14.2 µM | SNB-75 13.6 µM | SR 5.13 µM | UACC-257 13.3 µM

CC(C)=CCCC1(C)C=Cc2c(c(C)cc3c2[nH]c2cc(O)ccc23)O1 (stereo not given)
inactive: CCRF-CEM > 25 µM | COLO 205 > 25 µM | DLD-1 > 25 µM | K562 > 25 µM | KM12 > 25 µM | M14 > 25 µM | MOLT-4 > 25 µM | OVCAR-4 22.7 µM | OVCAR-5 > 25 µM | RPMI-8226 > 25 µM | SF-539 > 25 µM | SK-MEL-28 > 25 µM | SNB-19 > 25 µM | SR 24 µM

COc1ccc(Br)c(C(=O)N2CCc3ccccc32)c1N
inactive: CCRF-CEM 33.4 µM | COLO 205 66.1 µM | DLD-1 42.9 µM | K562 30.2 µM | KM12 34.2 µM | M14 32.9 µM | MOLT-4 31.3 µM | OVCAR-4 34.8 µM | OVCAR-5 > 100 µM | RPMI-8226 40.6 µM | SF-295 46.2 µM | SF-539 27.5 µM | SK-MEL-28 52.7 µM | SNB-19 63 µM | SNB-75 26.9 µM | SR 20.3 µM | UACC-257 29.9 µM

CC(C)(C)c1ccc2c(c1)S(=O)(=O)Nc1cccc(c1)NS(=O)(=O)c1cc(C(C)(C)C)ccc1OCCOCCO2
inactive: CAKI-1 > 100 µM | COLO 205 > 100 µM | DLD-1 > 100 µM | K562 > 100 µM | KM12 > 100 µM | M14 > 100 µM | MOLT-4 > 100 µM | OVCAR-4 > 100 µM | OVCAR-5 > 100 µM | RPMI-8226 23.6 µM | SF-295 > 100 µM | SF-539 > 100 µM | SK-MEL-28 > 100 µM | SNB-19 > 100 µM | SNB-75 > 100 µM | UACC-257 > 100 µM

Cn1c(=O)c2nc3sc4ccccc4c(=N)n3c2n(C)c1=O
inactive: CAKI-1 > 100 µM | CCRF-CEM > 100 µM | COLO 205 > 100 µM | DLD-1 > 100 µM | K562 > 100 µM | KM12 > 100 µM | MOLT-4 > 100 µM | OVCAR-4 > 100 µM | OVCAR-5 > 100 µM | SF-295 > 100 µM | SF-539 > 100 µM | SK-MEL-28 > 100 µM | SNB-19 > 100 µM | SR > 100 µM | UACC-257 > 100 µM

O=C1CCCC(O)=C1SC1=C(O)CCCC1=O
inactive: CAKI-1 94.2 µM | CCRF-CEM 71.6 µM | COLO 205 > 100 µM | DLD-1 35.2 µM | K562 51.4 µM | KM12 > 100 µM | M14 56.4 µM | MOLT-4 > 100 µM | OVCAR-4 > 100 µM | OVCAR-5 > 100 µM | RPMI-8226 > 100 µM | SF-295 > 100 µM | SF-539 > 100 µM | SK-MEL-28 69.2 µM | SNB-19 > 100 µM | SNB-75 77.4 µM | UACC-257 > 100 µM

COc1ccc2c3ccc4c(c3n(C)c2c1)C(=O)C=CC4=O
inactive: CCRF-CEM 2.93 µM | COLO 205 18.8 µM | DLD-1 15.3 µM | K562 5.92 µM | M14 > 100 µM | MOLT-4 2.86 µM | OVCAR-4 29.6 µM | RPMI-8226 6.41 µM | SF-295 > 100 µM | SF-539 20.8 µM | SK-MEL-28 84.9 µM | SNB-19 > 100 µM | SNB-75 > 100 µM | SR 2.84 µM | UACC-257 29.2 µM

CCOC(=O)C(C)(C)Oc1ccc(/C=C/C(=O)c2ccc(Cl)cc2)cc1
inactive: CCRF-CEM 17.2 µM | COLO 205 24 µM | DLD-1 14.1 µM | K562 14.3 µM | M14 18.4 µM | MOLT-4 19.6 µM | OVCAR-4 18.9 µM | RPMI-8226 10.9 µM | SF-295 21 µM | SF-539 19.5 µM | SK-MEL-28 19.4 µM | SNB-19 19.2 µM | SNB-75 15.2 µM | SR 27.3 µM | UACC-257 18.4 µM

OC1OC2COC(c3ccccc3)OC2C(O)C1O (stereo not given)
inactive: CAKI-1 > 100 µM | CCRF-CEM > 100 µM | COLO 205 > 100 µM | DLD-1 > 100 µM | K562 > 100 µM | KM12 > 100 µM | M14 > 100 µM | MOLT-4 > 100 µM | OVCAR-4 > 100 µM | OVCAR-5 > 100 µM | RPMI-8226 > 100 µM | SF-295 > 100 µM | SF-539 > 100 µM | SNB-19 > 100 µM | UACC-257 > 100 µM

COc1ccc2c(c1)CCc1c(C(C)=O)c3ccccc3n1C2
inactive: CAKI-1 24 µM | CCRF-CEM 63.4 µM | COLO 205 > 100 µM | DLD-1 42.4 µM | K562 6.37 µM | KM12 > 100 µM | M14 94.6 µM | MOLT-4 13.4 µM | OVCAR-4 28.3 µM | OVCAR-5 > 100 µM | SF-295 12.7 µM | SF-539 20.7 µM | SK-MEL-28 60.3 µM | SNB-19 38.5 µM | SNB-75 33.4 µM | SR 28.7 µM | UACC-257 15.3 µM

C#CCn1c(=O)[nH]c(=O)c2cccnc21
inactive: CAKI-1 > 100 µM | COLO 205 > 100 µM | DLD-1 > 100 µM | KM12 > 100 µM | M14 > 100 µM | MOLT-4 > 100 µM | OVCAR-4 > 100 µM | OVCAR-5 > 100 µM | RPMI-8226 > 100 µM | SF-295 > 100 µM | SK-MEL-28 > 100 µM | SNB-19 > 100 µM | SNB-75 > 100 µM | SR > 100 µM | UACC-257 > 100 µM
